Results taken from patent US4831041A, “Imidazopyridine compounds and processes for preparation thereof” (Fujisawa Pharmaceutical Co., Ltd., priority 1986, dated 1989).

Columns and labels:
[1] = system: ethanol ulcer; assay: Inhibition on ethanol ulcer; format: in vivo, Sprague-Dawley rats; conditions: 32 mg/kg, oral, 30 minutes before absolute ethanol (5 ml/kg); rats sacrificed one hour later; mean ulcer area vs control
Procedure: (A) Inhibition on ethanol ulcer
Five male Sprague-Dawley rats, aged 7 weeks and weighing about 200 g, were used per group for the study on ethanol ulcer after the fast for 24 hours.
Test compound was suspended in 0.1% methylcellulose aqueous solution, and the suspension (5 ml/kg) was orally given to each rat.
The control group was given a vehicle, i.e. 0.1% methylcellulose aqueous solution (5 ml/kg), alone in the same way.
Absolute ethanol (5 ml/kg) was orally administered 30 minutes after dosing with test compound, and one hour later, the rats were sacrificed and their stomachs were removed. The area of ulcers of each rat was measured. The mean area […] in the medicated group was compared with that in the control group.

[2] = system: Stress Ulcer; assay: Inhibition on Stress Ulcer; format: in vivo, Sprague-Dawley rats; conditions: 32 mg/kg, oral, just before immobilization in water bath at 22° C.; seven hours; mean ulcer area vs control
Procedure: (B) Inhibition on Stress Ulcer
Five Sprague-Dawley rats weighing about 200 g were used per group. Each animal was immobilized in a small cage and put in a water bath allowing to respire. The temperature of the water bath kept at 22° C. The test compound was administered orally just before the immobilization. Seven hours later, the animals were sacrificed and their stomachs were removed. The stomach was then fixed with 2% formalin. The area of ulcers was measured for each animal. The mean area (mm^2) in the medicated animals was compared with that in the control animals.

Compound	Inhibition % (ethanol ulcer area) [1]	Inhibition % (stress ulcer area) [2]
C#CCc1c(C)nc2c(OCc3c(C)cccc3NC(=O)OC)cccn12 [Test Compound (1), 8-(2-Methoxycarbonylamino-6-methylbenzyloxy)-2-methyl-3-(2-propynyl)imidazo[1,2-a]pyridine]	93.2%	100%
C#CCc1c(C)nc2c(OCc3c(C)cccc3NC(C)=O)cccn12 [Test Compound (2), 8-(2-Acetamido-6-methylbenzyloxy)-2-methyl-3(2-propynyl)imidazo[1,2-a]pyridine]	–	100%
C#CCc1c(C)nc2c(OCc3c(C)cccc3NC(N)=O)cccn12 [Test Compound (3), 2-methyl-8-(2-methyl-6-ureidobenzyloxy)-3-(2propynyl)imidazo[1,2-a]pyridin]	–	100%
C#CCc1c(C)nc2c(OCc3c(C)cccc3NC(N)=S)cccn12 [Test Compound (4), 2-Methyl-8-(2-methyl-6-thioureidobenzyloxy)-3(2-propynyl)imidazo[1,2-a]pyridine]	–	100%
